Test results published in patent US4636491A, “Renin inhibitory peptides having improved solubility” (Merck & Co., Inc., priority 1984, dated 1987).
Converted amounts (≈) assume the structure as drawn. Read-outs that look alike come from different tables or passages of the source. *1 amine or outer side, *2 acyl side, *3 side chain or, on linkers, in order; H or OH if unused. Where a SMILES comes first, the peptide text is derived from it. [ ]: non-standard residue; d: D form. The star is where a group is joined. ξ: configuration not given here. NH(3-guanidinomethylbenzyl) = NC(N)=NCc1cccc(CN*)c1; NH(3-OCH2COOH-benzyl) = O=C(O)COc1cccc(CN*)c1; X1 = NCc1cccc(CC(N[*:1])C(=O)[*:2])c1; Sta = CC(C)C[C@H](N)[C@@H](O)CC(=O)O; NHCH2CH2SO3H = O=S(=O)(O)CCN*; X4 = NC(Cc1cccc(CN*)c1)C(=O)O; X3 = [O-][n+]1ccc(CN*)cc1; ξPhg = NC(C(=O)O)c1ccccc1; Boc = CC(C)(C)OC(=O)*; X2 = NC(CN*)c1ccccn1

Tests used:
[1] = Solubility of the peptides in pH 7.4 buffer and in H2O; type: physicochemical
Experimental: (§1) Following the standard solid phase methodology described above in Example 1, additional inhibitory peptides of the present invention were prepared. The peptides prepared are set out in the following table. Satisfactory amino acid analyses were obtained by Spinco method for each listed peptide. Also included in the table is solubility data of three types from which the improved solubility characteristics of the peptides of the present invention may be judged.

Partition coefficient = type: physicochemical
Experimental: as §1

human kidney renin = molecular target: T1, human kidney renin (Homo sapiens, UniProt P00797); assay: Inhibition of purified human kidney renin; type: biochemical; settings: dissociation constant of the inhibited enzyme-inhibitor complex
T1 construct: human kidney renin purified as described in Bangham; from tissue; host or cells: human kidney
T1 sequence (P00797 67-406): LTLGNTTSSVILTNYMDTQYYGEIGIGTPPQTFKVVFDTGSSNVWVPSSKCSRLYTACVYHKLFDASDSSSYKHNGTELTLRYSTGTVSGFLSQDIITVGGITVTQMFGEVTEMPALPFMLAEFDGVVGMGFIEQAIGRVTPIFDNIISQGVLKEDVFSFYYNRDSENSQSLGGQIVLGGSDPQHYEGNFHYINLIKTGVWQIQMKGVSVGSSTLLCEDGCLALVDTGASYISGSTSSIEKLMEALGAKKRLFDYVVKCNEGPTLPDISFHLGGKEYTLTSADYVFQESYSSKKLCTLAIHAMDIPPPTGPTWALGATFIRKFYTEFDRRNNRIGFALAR
Experimental: (§2) Assays were carried out in order to determine the inhibitory potency of the peptides of the present invention. […] Another assay measured the inhibition of human kidney renin purified as described in Bangham, D. R., Robertson, I., Robinson, J. I. S., Robinson, C. J., and Tree, M., Clinical Science and Molecular Medicine, 48 (Supp. 2): 136s-159s (1975), and further purified by affinity chromatography on pepstatin-aminohexyl-Sepharase described in Poe, M., Wu., J. K., Florance, J. R., Radkey, J. A., Bennet, C. D., and Hoogsteen, K., J. Biol. Chem. 258:2209-2216 (1983). The assay was also in accordance with Poe et al. cited above. Further assays measured human plasma renin and dog plasma renin in accordance with procedures described in Biger et al, Nature, 303:81-84 (1983).
The results expressed as KI values refer to the dissociation constant of the inhibited enzyme-inhibitor complex. This KI value was obtained as described above.

human plasma renin = molecular target: T2, human plasma renin (Homo sapiens, UniProt P00797); assay: Inhibition of human plasma renin; type: biochemical
T2 construct: Further assays measured human plasma renin and dog plasma renin; from tissue; host or cells: human plasma
T2 sequence (P00797 67-406): T1 sequence (P00797 67-406)
Experimental: as §2

dog plasma renin = molecular target: T3, dog plasma renin (Canis lupus familiaris, UniProt Q6DYE7); assay: Inhibition of dog plasma renin; type: biochemical; settings: for Dog Plasma, % inhibition at 1000: at 1000 .eta.M
T3 construct: Further assays measured human plasma renin and dog plasma renin; from tissue; host or cells: dog plasma
T3 sequence (Q6DYE7 66-403): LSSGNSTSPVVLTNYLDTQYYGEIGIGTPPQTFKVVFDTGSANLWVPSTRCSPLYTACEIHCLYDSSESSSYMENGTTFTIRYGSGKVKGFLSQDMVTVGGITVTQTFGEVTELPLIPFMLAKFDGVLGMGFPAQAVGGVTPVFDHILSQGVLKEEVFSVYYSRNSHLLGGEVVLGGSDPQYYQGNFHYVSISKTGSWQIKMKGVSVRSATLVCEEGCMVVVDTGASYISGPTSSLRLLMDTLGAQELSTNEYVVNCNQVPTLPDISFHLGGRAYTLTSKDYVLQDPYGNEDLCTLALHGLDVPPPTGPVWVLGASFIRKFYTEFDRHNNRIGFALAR
Experimental: as §2

nephrectomized rats = settings: after the injection of hog renin into nephrectomized rats; cited from earlier work
[2] = pH 7.4, aqueous buffer, pH 7.4 Buffer mg/ml (solubility)
[3] = water, H2O, read-out: H2O mg/ml (solubility)

Molecule | solubility [1, 2] | solubility ([1]; water, H2O mg/ml (solubility)) | Partition Coefficient (Partition coefficient) | Ki (human kidney renin) | further results
CC(C)C[C@H](NC(=O)C[C@H](O)[C@H](CC(C)C)NC(=O)[C@H](Cc1c[nH]cn1)NC(=O)[C@H](Cc1ccccc1)NC(=O)OC(C)(C)C)C(=O)NCC(N)c1ccccn1 (stereo partly drawn) [Example 2] (Boc-FH[Sta]L-X2) | 0.32 mg/mL (≈ 404 µM) | 0.71 mg/mL (≈ 896 µM) | infinity | – | –
CC(C)C[C@H](NC(=O)C[C@H](O)[C@H](CC(C)C)NC(=O)[C@H](Cc1c[nH]cn1)NC(=O)[C@H](Cc1ccccc1)NC(=O)OC(C)(C)C)C(=O)NC(C(=O)O)c1ccccc1 (stereo partly shown) [Example 8] (Boc-FH[Sta]L[ξPhg]-OH) | – | – | 16.5 | 990 nM | solubility ([1]; pH 7.4 buffer, pH 7.4, aqueous buffer, pH 7.4 buffer, read-out: pH 7.4 Buffer mg/ml (solubility)): 1.8 mg/mL (≈ 2230 µM); solubility [1, 3]: 0.6 mg/mL (≈ 744 µM); Human Plasma, % inhibition at (concentration not given) (human plasma renin): 44%; Dog Plasma, % inhibition at 1000 (dog plasma renin): 45%
CC(C)C[C@H](NC(=O)C[C@H](O)[C@H](CC(C)C)NC(=O)[C@H](Cc1c[nH]cn1)NC(=O)[C@H](Cc1ccccc1)NC(=O)OC(C)(C)C)C(=O)NCc1cccc(CC(N)C(=O)O)c1 (stereo partly drawn) [Example 6] (Boc-FH[Sta]L-X4) | – | – | – | 12 nM | Human Plasma, % inhibition at (concentration not given) (human plasma renin): 15%; IC50 (dog plasma renin; read-out: Dog Plasma I50): 120 nM
CC(C)C[C@H](NC(=O)C[C@H](O)[C@H](CC(C)C)NC(=O)[C@H](Cc1c[nH]cn1)NC(=O)[C@H](Cc1ccccc1)NC(=O)OC(C)(C)C)C(=O)NCc1cc[n+]([O-])cc1 [Example 7] (Boc-FH[Sta]L-X3) | 3.3 mg/mL (≈ 4240 µM) | 5.1 mg/mL (≈ 6550 µM) | – | – | –
CC(C)C[C@H](NC(=O)C[C@H](O)[C@H](CC(C)C)NC(=O)[C@H](Cc1c[nH]cn1)NC(=O)[C@H](Cc1ccccc1)NC(=O)OC(C)(C)C)C(=O)NCc1cccc(OCC(=O)O)c1 [Example 9] (Boc-FH[Sta]L-{NH(3-OCH2COOH-benzyl)}) | 1.5 mg/mL (≈ 1790 µM) | 0.23 mg/mL (≈ 275 µM) | infinity | – | –
CC(C)C[C@H](NC(=O)C[C@H](O)[C@H](CC(C)C)NC(=O)[C@H](Cc1c[nH]cn1)NC(=O)[C@H](Cc1ccccc1)NC(=O)OC(C)(C)C)C(=O)NCc1cccc(CN=C(N)N)c1 [Example 3] (Boc-FH[Sta]L-{NH(3-guanidinomethylbenzyl)}) | 0.77 mg/mL (≈ 924 µM) | 2.46 mg/mL (≈ 2950 µM) | 10.6 | – | –
CC(C)C[C@H](NC(=O)C[C@H](O)[C@H](CC(C)C)NC(=O)[C@H](Cc1c[nH]cn1)NC(=O)[C@H](Cc1ccccc1)NC(=O)OC(C)(C)C)C(=O)NCCC(N)C(=O)O (single isomer, unassigned) [Example 5 (Isomer B)] | – | – | 10.7 | 2200 nM | Human Plasma, % inhibition at (concentration not given) (human plasma renin): 0%; Dog Plasma, % inhibition at 1000 (dog plasma renin; listed as 5 B): 22%
pepstatin | – | – | – | – | blood pressure in vivo (nephrectomized rats): reduce blood pressure
CC(C)C[C@H](NC(=O)C[C@H](O)[C@H](CC(C)C)NC(=O)[C@H](Cc1c[nH]cn1)NC(=O)[C@H](Cc1ccccc1)NC(=O)OC(C)(C)C)C(=O)NC(Cc1cccc(CN)c1)C(=O)O (stereo partly shown) [Example 4] (Boc-FH[Sta]L[X1]-OH) | 1.3 mg/mL (≈ 1530 µM) | 0.33 mg/mL (≈ 389 µM) | 68.2 | 4.9 nM | –
CC(C)C[C@H](NC(=O)C[C@H](O)[C@H](CC(C)C)NC(=O)[C@H](Cc1c[nH]cn1)NC(=O)[C@H](Cc1ccccc1)NC(=O)OC(C)(C)C)C(=O)NCCC(N)C(=O)O (single isomer, unassigned) [Example 5 (Isomer A)] | – | – | 2.1 | 2.4 nM | solubility [1, 3]: 1.72 mg/mL (≈ 2230 µM); Human Plasma, % inhibition at 1000 (human plasma renin; at 1000 .eta.M): 25%; Dog Plasma, % inhibition at 1000 (dog plasma renin; listed as 5 A): 15%
CC(C)C[C@H](NC(=O)C[C@H](O)[C@H](CC(C)C)NC(=O)[C@H](Cc1c[nH]cn1)NC(=O)[C@H](Cc1ccccc1)NC(=O)OC(C)(C)C)C(=O)NCCS(=O)(=O)O [Example 10] (Boc-FH[Sta]L-NHCH2CH2SO3H) | > 9 mg/mL | > 9 mg/mL | 4.34 | – | –
